Assay results reported in PubChem BioAssay AID1963965 (Molecular Pharmacology Branch, DTP, NCI, 2024).

Test system: 996289-038-R-J1-PDC spheroid viability
Experiment: Anticancer human tumor 996289-038-R-J1-PDC patient-derived colon adenocarcinoma cell line growth inhibition [PI3K]
Settings: spheroids with HUVEC and MSC; for IC50: curve of first compound; for viability, T/C: stronger effect = lower value
Summary of the method: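 Tumor cells were combined with HUVEC and MSCs into spheroids, then dosed with PI3K-inhibitor combinations over half-log ranges capped near clinical Cmax or 10 microM.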
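Further: spheroids exposed to compounds for seven days before viability read.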
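Wherever viability, T/C is given: luminescence used as a proxy for viable cell amount; percent viability relative to DMSO vehicle control as 100%.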

With `CNC(=O)c1ccc(N2C(=S)N(c3ccc(C#N)c(C(F)(F)F)c3)C(=O)C2(C)C)cc1F` + COc1c(OCCCN2CCOCC2)ccc2c3n(c(=NC(=O)c4cnc(N)nc4)nc12)CCN3 the IC50 (second compound 0.00316 µM) was > 10000 nM, the IC50 (second compound 0.01 µM) was > 10000 nM and the IC50 (second compound 0.0316 µM) was > 10000 nM. The IC50 (second compound 0.1 µM) was > 10000 nM, the IC50 (second compound 0.316 µM) was < 31.6 nM and the IC50 (second compound 1 µM) was < 31.6 nM. It also gave a viability, T/C (second compound 0.00316 µM, first compound 0.0316 µM) of 103%, a viability, T/C (second compound 0.00316 µM, first compound 0.1 µM) of 92.2% and a viability, T/C (second compound 0.00316 µM, first compound 0.316 µM) of 93.2%. It also gave a viability, T/C (second compound 0.00316 µM, first compound 1 µM) of 106%, a viability, T/C (second compound 0.00316 µM, first compound 3.16 µM) of 99.4% and a viability, T/C (second compound 0.00316 µM, first compound 10 µM) of 125%. For the same compound, the viability, T/C (second compound 0.01 µM, first compound 0.0316 µM) was 98%, the viability, T/C (second compound 0.01 µM, first compound 0.1 µM) was 89.8% and the viability, T/C (second compound 0.01 µM, first compound 0.316 µM) was 103%. For the same compound, the viability, T/C (second compound 0.01 µM, first compound 1 µM) was 88.9%, the viability, T/C (second compound 0.01 µM, first compound 3.16 µM) was 87% and the viability, T/C (second compound 0.01 µM, first compound 10 µM) was 106%. It also gave a viability, T/C (second compound 0.0316 µM, first compound 0.0316 µM) of 82.5%, a viability, T/C (second compound 0.0316 µM, first compound 0.1 µM) of 78% and a viability, T/C (second compound 0.0316 µM, first compound 0.316 µM) of 81%. The viability, T/C (second compound 0.0316 µM, first compound 1 µM) was 67.5%, the viability, T/C (second compound 0.0316 µM, first compound 3.16 µM) was 89.4% and the viability, T/C (second compound 0.0316 µM, first compound 10 µM) was 92.4%. It also gave a viability, T/C (second compound 0.1 µM, first compound 0.0316 µM) of 66.5%, a viability, T/C (second compound 0.1 µM, first compound 0.1 µM) of 66.2% and a viability, T/C (second compound 0.1 µM, first compound 0.316 µM) of 64.8%. The viability, T/C (second compound 0.1 µM, first compound 1 µM) was 67.7%, the viability, T/C (second compound 0.1 µM, first compound 3.16 µM) was 58.7% and the viability, T/C (second compound 0.1 µM, first compound 10 µM) was 65.9%. For the same compound, the viability, T/C (second compound 0.316 µM, first compound 0.0316 µM) was 40.1%, the viability, T/C (second compound 0.316 µM, first compound 0.1 µM) was 33.2% and the viability, T/C (second compound 0.316 µM, first compound 0.316 µM) was 34.5%. The viability, T/C (second compound 0.316 µM, first compound 1 µM) was 39.8%, the viability, T/C (second compound 0.316 µM, first compound 3.16 µM) was 40.3% and the viability, T/C (second compound 0.316 µM, first compound 10 µM) was 27.6%. For the same compound, the viability, T/C (second compound 1 µM, first compound 0.0316 µM) was 21.8%, the viability, T/C (second compound 1 µM, first compound 0.1 µM) was 19.9% and the viability, T/C (second compound 1 µM, first compound 0.316 µM) was 18%. For the same compound, the viability, T/C (second compound 1 µM, first compound 1 µM) was 20.1%, the viability, T/C (second compound 1 µM, first compound 3.16 µM) was 19.1% and the viability, T/C (second compound 1 µM, first compound 10 µM) was 13.8%.
Work on `Cn1cnc2c(F)c(Nc3ccc(Br)cc3Cl)c(C(=O)NOCCO)cc21` + COc1c(OCCCN2CCOCC2)ccc2c3n(c(=NC(=O)c4cnc(N)nc4)nc12)CCN3 yielded an IC50 (second compound 0.00316 µM) of 147 nM, an IC50 (second compound 0.01 µM) of 74 nM and an IC50 (second compound 0.0316 µM) of 49.6 nM. For the same compound, the IC50 (second compound 0.1 µM) was 12.7 nM, the IC50 (second compound 0.316 µM) was < 9.49 nM and the IC50 (second compound 1 µM) was < 9.49 nM. For the same compound, the viability, T/C (second compound 0.00316 µM, first compound 0.00949 µM) was 85.8%, the viability, T/C (second compound 0.00316 µM, first compound 0.03 µM) was 64.4% and the viability, T/C (second compound 0.00316 µM, first compound 0.0949 µM) was 62.2%. It also gave a viability, T/C (second compound 0.00316 µM, first compound 0.3 µM) of 38.7%, a viability, T/C (second compound 0.00316 µM, first compound 0.949 µM) of 28.2% and a viability, T/C (second compound 0.00316 µM, first compound 3 µM) of 20.1%. The viability, T/C (second compound 0.01 µM, first compound 0.00949 µM) was 79.3%, the viability, T/C (second compound 0.01 µM, first compound 0.03 µM) was 65.1% and the viability, T/C (second compound 0.01 µM, first compound 0.0949 µM) was 45.5%. The viability, T/C (second compound 0.01 µM, first compound 0.3 µM) was 29.7%, the viability, T/C (second compound 0.01 µM, first compound 0.949 µM) was 28.5% and the viability, T/C (second compound 0.01 µM, first compound 3 µM) was 16.8%. It also gave a viability, T/C (second compound 0.0316 µM, first compound 0.00949 µM) of 71.3%, a viability, T/C (second compound 0.0316 µM, first compound 0.03 µM) of 59.1% and a viability, T/C (second compound 0.0316 µM, first compound 0.0949 µM) of 38.2%. The viability, T/C (second compound 0.0316 µM, first compound 0.3 µM) was 28.8%, the viability, T/C (second compound 0.0316 µM, first compound 0.949 µM) was 19.2% and the viability, T/C (second compound 0.0316 µM, first compound 3 µM) was 12.5%. The viability, T/C (second compound 0.1 µM, first compound 0.00949 µM) was 54.1%, the viability, T/C (second compound 0.1 µM, first compound 0.03 µM) was 39.2% and the viability, T/C (second compound 0.1 µM, first compound 0.0949 µM) was 27.6%. For the same compound, the viability, T/C (second compound 0.1 µM, first compound 0.3 µM) was 18.6%, the viability, T/C (second compound 0.1 µM, first compound 0.949 µM) was 12.5% and the viability, T/C (second compound 0.1 µM, first compound 3 µM) was 5.57%. For the same compound, the viability, T/C (second compound 0.316 µM, first compound 0.00949 µM) was 34.1%, the viability, T/C (second compound 0.316 µM, first compound 0.03 µM) was 24.5% and the viability, T/C (second compound 0.316 µM, first compound 0.0949 µM) was 15.1%. The viability, T/C (second compound 0.316 µM, first compound 0.3 µM) was 10.6%, the viability, T/C (second compound 0.316 µM, first compound 0.949 µM) was 6.3% and the viability, T/C (second compound 0.316 µM, first compound 3 µM) was 4.03%. For the same compound, the viability, T/C (second compound 1 µM, first compound 0.00949 µM) was 15.6%, the viability, T/C (second compound 1 µM, first compound 0.03 µM) was 14.3% and the viability, T/C (second compound 1 µM, first compound 0.0949 µM) was 9.32%. The viability, T/C (second compound 1 µM, first compound 0.3 µM) was 5.03%, the viability, T/C (second compound 1 µM, first compound 0.949 µM) was 4.84% and the viability, T/C (second compound 1 µM, first compound 3 µM) was 2.93%.
